These results are taken from US4496591A, “Insecticidal bis-carbamate sulfides” (priority 1981, dated 1985).

Holding throughout (assay type): in vivo
The subject of series [1] is bean aphid (Aphis fabae Scop.). Put plainly: Bean aphid foliage spray test. Also on record: key: A: excellent control; B: partial control; C: no control at 500 ppm. As to conditions: 500 parts per million, 24 hour. As to the method:
(§1) Suspensions of the test compounds were prepared by dissolving one gram of compound in 50 milliliters of acetone in which had been dissolved 0.1 gram (10 percent of the weight of compound) of an alkylphenoxy polyethoxyethanol surfactant, as an emulsifying or dispersing agent. The resulting solution was mixed into 150 milliliters of water to give roughly 200 milliliters of a suspension containing the compound in finely divided form. The thus-prepared stock suspension contained 0.5 percent by weight of compound. The concentrations in parts per million by weight employed in the tests described hereinbelow were obtained by appropriate dilutions of the stock suspension with water. The test procedures were as follows:
Adults and nymphal stages of the bean aphid (Aphis fabae Scop.) reared on potted dwarf nasturtium plants at 68°-70° F. and 50±5 percent relative humidity, constituted the test insects. For testing purposes, the number of aphids per pot were standardized to 100-150 by trimming plants containing excess aphids.
The test compounds were formulated by diluting the stock suspension with water to give a suspension containing 500 parts of test compound per million parts of final formulation.
The potted plants (one pot per compound tested) infested with 100-150 aphids, were placed on a revolving turntable and sprayed with 100-110 milliliters of test compound formulation by use of a DeVilbiss spray gun set at 40 psig. air pressure. This application, which lasted 25 seconds, was sufficient to wet the plants to run-off. As a control, 100-110 milliliters of a water-acetone-emulsifier solution containing no test compound was also sprayed on infested plants. After spraying, the pots were placed on their sides on a sheet of white standard mimeograph paper which had been previously ruled to facilitate counting. Temperature and humidity in the test room during the 24 hour holding period were 68°-70° F. and 50±5 percent, respectively. Aphids which fell onto the paper and were unable to remain standing after being uprighted were considered dead. Aphids remaining on the plants were observed closely for movement and those which were unable to move the length of the body upon stimulation by prodding were considered dead.
(§2) In these tests the pesticidal activity of the compounds at the indicated dosage rate against aphid, Southern Armyworm, Bean Beetle and housefly was rated as follows: […]

Series [2] has as its system southern armyworm (Spodoptera eridania, (Cram.)) larvae. Put plainly: Southern armyworm leaf spray bait test. Also on record: key: A: excellent control; B: partial control; C: no control at 500 ppm. As to conditions: 500 parts per million, three days. The procedure:
as §1
Larvae of the southern armyworm (Spodoptera eridania, (Cram.)), reared on Tendergreen bean plants at a temperature of 80±5° F. and a reative humidity of 50±5 percent, constituted the test insects.
The test compounds were formulated by diluting the stock suspension with water to give a suspension containing 500 parts of test compound per million parts of final formulation. Potted Tendergreen bean plants of standard height and age were placed on a revolving turntable and sprayed with 100-110 milliliters of test compound formulation by use of a DeVilbiss spray gun set at 40 psig air pressure. This application, which lasted 25 seconds, was sufficient to wet the plants to run-off. As a control, 100-110 milliliters of a water-acetone-emulsifier solution containing no test compound were also sprayed on infested plants. When dry, the paired leaves were separated and each one was placed in a 9 centimeter Petri dish lines with moistened filter paper. Five randomly selected larvae were introduced into each dish and the dishes were closed. The closed dishes were labeled and held at 80°-85° F. for three days. Although the larvae could easily consume the whole leaf within twenty-four hours, no more food was added. Larvae which were unable to move the length of the body, even upon stimulation by prodding, were considered dead.
as §2

Series [3] relates to egg of the Southern armyworm (Spodoptera eridania (Cram.)). Put plainly: Southern armyworm ovicide test. More on the design: key: A: excellent control; B: partial control; C: no control at 500 ppm. Conditions: 500 parts per million, egg dip, four days. The procedure:
as §1
The test organism was the egg of the Southern armyworm (Spodoptera eridania (Cram.)) as obtained from adults reared on Tendergreen bean plants at a temperature of 80±5° F. and a relative humidity of 50±5 percent. The eggs were laid on freezer paper (Marlon 717, Copco paper) and then cut into small sections containing one or two egg masses.
The test compounds were formulated by diluting the stock suspension with water to give a suspension containing 500 parts of test compound per million parts of final formulation. The egg masses were then dipped until they were thoroughly wet (5-10 seconds). They were then placed on a paper towel face up and were allowed to dry for 15-30 minutes. The dry eggs were placed in a 15×60 mm petri dish containing a cotton dental wick saturated with a 5 percent sodium chloride solution to maintain a high level of humidity. The closed dishes were labeled and held at a temperature of 80±5° F. for four days. Larvae that emerged from the egg, even if dead at the time of observation, were recorded as hatched.
as §2

The test system of series [4] is Mexican bean beetle (Epilachna varivestis, Muls.) larvae. Put plainly: Mexican bean beetle leaf spray test. More on the design: key: A: excellent control; B: partial control; C: no control at 500 ppm. As to conditions: 500 parts per million, fourth instar larvae, three days. The procedure:
as §1
Fourth instar larvae of the Mexican bean beetle (Epilachna varivestis, Muls.), reared on Tendergreen bean plants at a temperature of 80±5° F. and 50±5° F. percent relative humdity, were the test insects.
The test compounds were formulated by diluting the stock suspension with water to give a suspension containing 500 parts of test compound per million parts of final formulation. Tendergreen bean plants of standard height and age were placed on a revolving turntable and sprayed with 100-110 milliliters of test compound formulation by use of a DeVilbiss spray gun set at 40 psig air pressure. This application, which lasted 25 seconds, was sufficient to wet the plants to run-off. As a control, 100-110 milliliters of a water-acetone-emulsifier solution containing no test compound was also sprayed on infested plants. When dry, the paired leaves were separated and each was placed in a 9 centimeter Petri dish lined with moistened filter paper. Five randomly selected larvae were introduced into each dish, and the dishes were closed. The closed dishes were labeled and held at a temperature of 80±5° F., for three days. Although the larvae could easily consume the leaf within 24 to 48 hours, no more food was added. Larvae which were unable to move the length of the body, even upon stimulation, were considered dead.
as §2

Series [5] concerns house flies (Musca domestica, L.). Put plainly: Fly bait test. More on the design: key: A: excellent control; B: partial control; C: no control at 500 ppm. As to conditions: 500 parts per million, sugar bait, twenty-four hours. As to the method:
as §1
Four to six day old adult house flies (Musca domestica, L.), reared according to the specifications of the Chemical Specialties Manufacturing Association (Blue Book, McNair-Dorland Co., N.Y. 1954; pages 243-244, 261) under controlled conditions of 80±5° F. and 50±5 percent relative humidity, were the test insects. The flies were immobilized by anesthetizing them with carbon dioxide. Twenty-five immobilized individuals, males and females, were transferred to a cage consisting of a standard food strainer about five inches in diameter which was inverted over a wrapping-paper-covered surface. The test compounds were formulated by diluting the stock suspension with a 10 percent (by weight) sugar solution to give a suspension containing 500 parts of test compound per million parts of final formulation, by weight. Ten milliliters of the test formulation were added to a souffle cup containing a one-inch square of an absorbent cotton pad. This bait cup was introduced and centered on the blotting paper under the food strainer prior to admitting the anesthetized flies. The caged flies were allowed to feed on the bait for twenty-four hours, at a temperature of 80±5° F. and at a relative humidity of 50±5 percent.
as §2

Series [6] relates to root-knot nematode, Meloidogyne incognita var. acrita. Put plainly: Nematocide test. Also on record: key: 1: severe galling, equal to untreated plants; 2: moderate galling; 3: light galling; 4: very light galling; 5: no galling, perfect control. Conditions: 3.33 m.g. per jar, cucumber, approximately 3 weeks. As to the method: The test organism used was the infective migratory larvae of the root-knot nematode, Meloidogyne incognita var. acrita, reared in the greenhouse on roots of cucumber plants. Infected plants were removed from the culture, and the roots were chopped very finely. A small amount of this inoculum was added to a pint jar containing approximately 180 cc. of soil. The jars were capped and incubated for one week at room temperature. During this period eggs of the nematode were hatched, and the larval forms migrated into the soil.
Ten ml. of the test formulation were added to each of the two jars for each dosage tested. Following the addition of chemical, the jars were capped, and the contents thoroughly mixed on a ball mill for […].
The test compounds were formulated by a standard procedure of solution in acetone addition of an emulsifier, and dilution with water. Primary screening tests were conducted at 3.33 m.g. of the test compound per jar.
The jars were left capped at room temperature for a period of 48 hours, and the contents then transferred to 3 inch pots. Subsequently, the pots were seeded to cucumber as an indicator crop and placed in the greenhouse where they were cared for in the normal fashion for approximately 3 weeks.
The cucumber plants were then taken from the pots, the soil removed from the roots, and the amount of galling visually rated.
In the test for activity against nematodes activity was rated as follows: […]

Series [7] relates to housefly adults (Musca domestica). Put plainly: Comparative residual effect in soil. As to conditions: for Residual effect in soil (mortality), 0 weeks / Residual Activity (weeks): soil concentration four times LD50, housefly; for Residual effect in soil (mortality), 0 weeks: 24 hours; for Residual effect in soil (mortality), 1 week / Residual effect in soil (mortality), 4 weeks: soil concentration four times LD50, 25° C., 90% relative humidity; for Residual effect in soil (mortality), 1 week: 10080 min; for Residual effect in soil (mortality), 4 weeks: 40320 min. The procedure: Selected species of the new compounds were evaluated for their residual pesticidal activity in soil. […] The residual activity test were conducted using five to seven-day old housefly adults (Musca domestica).
The soil mixture used was one part agricultural soil and three parts sand. The agricultural soil was stored in plastic bags in a freezer, immediately after removal from the field. This was done to reduce microbial multiplication. Two weeks prior to use, the soil was thawed and held at room temperature to allow microbial population to equilibrate. The sand and soil were sifted to remove clumps and debris and were then blended by rolling on a roller mill in a closed metal container. The moisture level was adjusted to 15% by weight.
The concentration in the soil of the compound to be tested was four times the amount (in parts per million) necessary to achieve a mortality rate of 50% on contact with the soil (LD50). This is in accordance with the procedure developed by C. R. Harris of the Research Institute, Canadian Department of Agriculture, London, Ontario. Such procedure is disclosed in "Biological Activity of Chloropyrifos, Chlorpyrifor-Methyl, Phorate, and Counter® in Soil", The Canadian Entomologist, Vol. 109, pp. 1115-1120 (August 1977); and in "Laboratory Studies on the Persistance of Biological Activity of Some Insecticides in Soils", Journal of Economic Entomology, Vol. 62, No. 6, pp. 1437-1441 (December 1969).
An appropriate amount of compound was dissolved in an acetone--Triton solution and was diluted with water. Five mililiters of the formulated chemical was applied to four ounces of soil mixture and rolled in a 16-ounce glass jar to blend the compound evenly with the soil. Ten mililiters of granular cane sugar was then mixed thoroughly with the treated soil in an eight-ounce plastic container.
Twenty-five housefly adults, anesthetized with CO2, were then transferred to the soil and were covered with a perforated plastic lid. The test containers were held for 24 hours in a constant environment at a temperature of 80±5° F. and a relative humidity of […]. Mortality was based on the ability of the fly to move in a normal manner without spinning.
The above process was repeated on treated soil which had been incubated at 25° C. and 90% relative humidity for 1, 4, 6 and 8 weeks after initial exposure. This was necessary because the soil is incubated without sugar, sugar being added at the time of reinfestation. For this reason, appropriate volumes of soil had to be treated at the start of the soil test to last for the expected residual period.

With `COc1ccc(C(=O)c2ccccc2)c(OC(=O)N(C)SN(C)C(=O)ON=C(C)SC)c1` [Compound 10], the “Aphids, pesticidal activity rating” value in series [1] is “A”. In series [2], the “Southern Armyworm, pesticidal activity rating” value is listed as “A”. In series [3], the “Southern Armyworm (egg), pesticidal activity rating” value (“Southern Armyworm (egg)” for short) is given as “A”. In series [4], the “Mexican Bean Beetle, pesticidal activity rating” value (“Mexican Bean Beetle” below) is given as “A”. In addition, the “Housefly, pesticidal activity rating” value in series [5] is given as “A”. Besides, the “Root-Knot Nematode, galling rating” value in series [6] is reported as 5.

`CSC(C)=NOC(=O)N(C)SN(C)C(=O)Oc1cc(C)c(C)c(C)c1` [B]: in series [7], the “Residual effect in soil (mortality), 0 weeks” value (from here on “Residual effect … 0 weeks”) worked out at 100; the “Residual effect in soil (mortality), 1 week” value (“Residual effect … 1 week” below) amounted to 100; the “Residual effect in soil (mortality), 4 weeks” value (from here on “Residual effect … 4 weeks”) is on record as 0; the “Residual Activity (weeks)” value is given as “less than 4 weeks”.

On to `COc1cc(C=O)ccc1OC(=O)N(C)SN(C)C(=O)ON=C(C)SC` [Compound 5], for which the “Aphids, pesticidal activity rating” value in series [1] is reported as “A”. The “Southern Armyworm, pesticidal activity rating” value in series [2] was “A”. In series [3], the “Southern Armyworm (egg)” value was “B”. The “Mexican Bean Beetle” value in series [4] is recorded as “A”. Besides, in series [5], the “Housefly, pesticidal activity rating” value was “A”. Moreover, the “Root-Knot Nematode, galling rating” value in series [6] was 2.

Turning to `CSC(C)=NOC(=O)N(C)SN(C)C(=O)Oc1ccc(C(C)=O)c(C)c1` [Compound 7], the “Aphids, pesticidal activity rating” value in series [1] is on record as “A”. Also, in series [2], the “Southern Armyworm, pesticidal activity rating” value is on record as “A”. Also, the “Southern Armyworm (egg)” value in series [3] is reported as “A”. In addition, the “Mexican Bean Beetle” value in series [4] is “A”. Besides, in series [5], the “Housefly, pesticidal activity rating” value is “A”. For the same compound, the “Root-Knot Nematode, galling rating” value in series [6] was 5.

On to `CSC(C)=NOC(=O)N(C)SN(C)C(=O)Oc1cccc(C)c1` [A], for which, in series [7], the “Residual effect … 0 weeks” value was 100; the “Residual effect … 1 week” value came to 100; the “Residual effect … 4 weeks” value amounted to 23; the “Residual Activity (weeks)” value is “less than 4 weeks”.

Regarding `CNC(=O)ON=C(C)SC` [Methomyl, methyl N[[(methylamino)carbonyl]oxy]ethanimidothioate], in series [7], the “Residual effect … 0 weeks” value is 100; the “Residual effect … 1 week” value is reported as 100; the “Residual effect … 4 weeks” value is on record as 15; the “Residual Activity (weeks)” value is reported as “less than 4 weeks”.

For the compound `CSC(C)=NOC(=O)N(C)SN(C)C(=O)Oc1ccc(C(=O)O)cc1` [Compound 4, S-Methyl-N-[[[N'-[[N"-[(4-hydroxycarbonylphenoxy)carbonyl]-N"-methylaminosulfenyl]]-N'-methylcarbamoyloxy]]]thioacetimidate], in series [1], the “Aphids, pesticidal activity rating” value is “B”. The “Southern Armyworm, pesticidal activity rating” value in series [2] is “A”. The “Mexican Bean Beetle” value in series [4] was “A”. In addition, in series [5], the “Housefly, pesticidal activity rating” value is “A”.
